One experiment relates to CD55 mRNA. In words: CD55 mRNA expression of hMSCs by RT-qPCR. Format: cell-based, human. The following applies: for CD55 mRNA expression of hMSCs compared to untreated control: AT-, BM-, UC-hMSC, Erlotinib 2, 5, 10 μM or atorvastatin 2, 5, 25, 50 μM, within 24 hours, normalized to GADPH; for Dose dependence of CD55 upregulation in hMSCs: Erlotinib 2-10 μM, atorvastatin 2-50 μM; for Expression of CD55 on hMSC vs untreated control (mRNA or protein level not specified): drug treatment of hMSC. On the procedure: FIG. 9 is a bar graph of CD55 mRNA expression of hMSCs in presence of atorvastatin, showing % Normalized to GADPH (0-25) for each MSC group Adipose Tissue (AT; red), Bone Marrow (BM; blue), and Umbilical Cord (UC; green), respectively, in the presence of 0 μM (untreated control) 2 μM, 5 μM, 25 μM, and 50 μM atorvastatin.
FIG. 10 is a bar graph of CD55 mRNA expression of hMSCs in presence of Erlotinib, showing % Normalized to GADPH (0-25) for each MSC group Adipose Tissue (AT; red), Bone Marrow (BM; blue), and Umbilical Cord (UC; green), respectively, in the presence of 0 μM (untreated control) 2 μM, 5 μM, and 10 μM Erlotinib.
(§1) The expression of CD55 in hMSC was then validated by RT-qPCR and flow cytometry.
hMSC were treated with Erlotinib, which is an EGFR inhibitor, on different dosages within 24 hours, […]

A further experiment concerns CD55 surface protein. Briefly: CD55 surface protein expression on hMSCs by flow cytometry. Format: cell-based, human. The following applies: AT-, BM-, UC-hMSC, 5 μM Atr or 5 μM Erl, 24 hr. How it is done: FIG. 11 is a bar graph of CD55 surface expression on hMSCs following 24 hr in presence of Atorvastatin (Atr) or Erlotinib (Erl), showing % of CD55+ cells (0-100) for each MSC group Adipose Tissue (AT; red), Bone Marrow (BM; blue), and Umbilical Cord (UC; green), respectively, in the presence of nothing (untreated control) 5 μM Atr, or 5 μM Erl.
as §1
Background: A flow cytometer gives signals particle by particle.

“Also recorded” adds a separate entry of the source.

For `C#Cc1cccc(Nc2ncnc3cc(OCCOC)c(OCCOC)cc23)c1` [erlotinib, Erlotinib], in the experiment on CD55 mRNA, the “CD55 mRNA expression of hMSCs compared to untreated control” value is given as “increased CD55 expression with significance difference in mRNA level compared to untreated control”, the “Dose dependence of CD55 upregulation in hMSCs” value is on record as “dose dependent manner” and the “Expression of CD55 on hMSC vs untreated control (mRNA or protein level not specified)” value was “significantly increased of CD55 expression; also recorded: significantly higher expression of CD55 than untreated control”. Further, the “CD55 surface protein level on hMSCs compared with untreated control” value in the experiment on CD55 surface protein is “significantly upregulated compared with untreated control”.
As to `CC(C)c1c(C(=O)Nc2ccccc2)c(-c2ccccc2)c(-c2ccc(F)cc2)n1CC[C@@H](O)C[C@@H](O)CC(=O)O` [atorvastatin, Atorvastatin], in the experiment with CD55 mRNA, the “CD55 mRNA expression of hMSCs compared to untreated control” value was “increase the expression of CD55 of hMSCs in both mRNA and protein level”; the “Dose dependence of CD55 upregulation in hMSCs” value is recorded as “there was not a similar dose dependent relationship”; the “Expression of CD55 on hMSC vs untreated control (mRNA or protein level not specified)” value is given as “significantly increased of CD55 expression; also recorded: significantly higher expression of CD55 than untreated control”. The “CD55 surface protein level on hMSCs compared with untreated control” value in the experiment on CD55 surface protein is “increase the expression of CD55 of hMSCs in both mRNA and protein level”.

(Values after patent US20230218572A1, “COMPOSITIONS AND METHODS FOR IMPROVED MESENCHYMAL STEM CELL THERAPY” (Versitech Limited, priority 2021, published 2023).)
